T/C data for 21 compounds are collected here from PubChem BioAssay AID328 (DTP/NCI, 2004).

Values joined by “and” are separate entries in the source; they are usually repeats but may differ in a detail not shown here. Equal entries are not always repeated. Inconclusive results and toxic doses are left out.

This assay deals with BDF1 mice, P388 leukemia ip, median survival T/C. In words: NCI In Vivo Anticancer Drug Screen. Data for tumor model P388 Leukemia (intraperitoneal) in B6D2F1 (BDF1) mice. The conditions noted are these: endpoint: median survival time, higher = longer survival. Put shortly:
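Steps: implant the tumour, treat one group with compound and another with vehicle, record survival, then divide treated by control.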

Where [1] appears, read: dose: 50.0 mg/kg/injection, schedule: Q01DX009 (ip), vehicle: saline.
Where [2] appears, read: dose: 25.0 mg/kg/injection, schedule: Q01DX009 (ip), vehicle: Klucel (hydroxypropylcellulose) (HPC).
[3] abbreviates: dose: 50.0 mg/kg/injection, schedule: Q01DX009 (ip), vehicle: Klucel (hydroxypropylcellulose) (HPC).
The mark [4] stands for this setting: dose: 100.0 mg/kg/injection, schedule: Q01DX009 (ip), vehicle: Klucel (hydroxypropylcellulose) (HPC).
The mark [5] stands for this setting: dose: 12.5 mg/kg/injection, schedule: Q01DX009 (ip), vehicle: saline.
Setting [6] is: dose: 25.0 mg/kg/injection, schedule: Q01DX009 (ip), vehicle: saline.
[7] abbreviates: dose: 50.0 mg/kg/injection, schedule: Q01DX009 (ip), vehicle: saline with Tween-80.
[8] abbreviates: dose: 100.0 mg/kg/injection, schedule: Q01DX009 (ip), vehicle: saline with Tween-80.
The mark [9] stands for this setting: dose: 200.0 mg/kg/injection, schedule: Q01DX009 (ip), vehicle: saline with Tween-80.
The mark [10] stands for this setting: dose: 6.25 mg/kg/injection, schedule: Q01DX009 (ip), vehicle: saline.
Where [11] appears, read: dose: 50.0 mg/kg/injection, schedule: Q04DX003 (ip), vehicle: saline with Tween-80.
The mark [12] stands for this setting: dose: 100.0 mg/kg/injection, schedule: Q04DX003 (ip), vehicle: saline with Tween-80.
[13] abbreviates: dose: 100.0 mg/kg/injection, schedule: Q04DX003 (ip), vehicle: Klucel (hydroxypropylcellulose) (HPC).
Setting [14] is: dose: 200.0 mg/kg/injection, schedule: Q04DX003 (ip), vehicle: Klucel (hydroxypropylcellulose) (HPC).
[15] abbreviates: dose: 200.0 mg/kg/injection, schedule: Q04DX003 (ip), vehicle: saline with Tween-80.

Regarding `Cc1cc(O)c2c(c1)C(=O)C=CC2=O`, the T/C was 107 % of control (dose: 0.12 mg/kg/injection, schedule: Q01DX009 (ip), vehicle: other); 101 % of control (dose: 0.25 mg/kg/injection, schedule: Q01DX009 (ip), vehicle: other); 117 % of control (dose: 0.5 mg/kg/injection, schedule: Q01DX009 (ip), vehicle: other); 120 % of control (dose: 0.54 mg/kg/injection, schedule: Q01DX009 (ip), vehicle: alcohol); 110 % of control (dose: 0.82 mg/kg/injection, schedule: Q01DX009 (ip), vehicle: alcohol); 103 % of control (dose: 1.0 mg/kg/injection, schedule: Q01DX009 (ip), vehicle: other). Further, the T/C by setting is: (dose: 1.25 mg/kg/injection, schedule: Q01DX009 (ip), vehicle: alcohol) 106 % of control; (dose: 1.8 mg/kg/injection, schedule: Q01DX009 (ip), vehicle: alcohol) 102 % of control; (dose: 2.0 mg/kg/injection, schedule: Q01DX009 (ip), vehicle: other) 101 % of control; (dose: 2.5 mg/kg/injection, schedule: Q01DX009 (ip), vehicle: alcohol) 121 % of control.
Regarding `COc1cc2c(c(OC)c1OC)-c1ccc(SC)c(=O)cc1[C@@H](NC1OC(CO)C(O)C(O)C1O)CC2` (some centres not stated), the T/C under setting [1] was 155 % of control.
For the compound `OC1CCC2(CC1)Cc1ccccc1C2O` (configuration not stated), the T/C was 114 % of control (dose: 100.0 mg/kg/injection, schedule: Q01DX001 (ip), vehicle: saline with Tween-80); 119 % of control (dose: 200.0 mg/kg/injection, schedule: Q01DX001 (ip), vehicle: saline with Tween-80); 119 % of control (dose: 400.0 mg/kg/injection, schedule: Q01DX001 (ip), vehicle: saline with Tween-80).
For `O=C(O)c1[nH]c(=O)[nH]c(=O)c1F`, the T/C was 152 % of control (dose: 2.5 mg/kg/injection, schedule: Q01DX010 (ip), vehicle: saline) and 166 % of control (dose: 10.0 mg/kg/injection, schedule: Q01DX010 (ip), vehicle: saline).
For the compound `CC(C)=NOC(=O)Nc1ccc(Cl)cc1`, the T/C was 111 % of control under setting [2], 118 % of control under setting [3] and 124 % of control under setting [4].
As to `O=C(c1ccccc1)c1ccccc1`, the T/C reads like this: (dose: 100.0 mg/kg/injection, schedule: Q01DX001 (ip), vehicle: Klucel (hydroxypropylcellulose) (HPC)) 100 % of control; (dose: 200.0 mg/kg/injection, schedule: Q01DX001 (ip), vehicle: Klucel (hydroxypropylcellulose) (HPC)) 100 % of control; (dose: 400.0 mg/kg/injection, schedule: Q01DX001 (ip), vehicle: Klucel (hydroxypropylcellulose) (HPC)) 116 % of control.
With `COc1cc(NS(C)(=O)=O)ccc1Nc1c2ccccc2nc2c(C)cccc12`, the T/C by setting is: (dose: 1.25 mg/kg/injection, schedule: Q01DX009 (ip), vehicle: Klucel (hydroxypropylcellulose) (HPC)) 107 % of control; (dose: 2.5 mg/kg/injection, schedule: Q01DX009 (ip), vehicle: Klucel (hydroxypropylcellulose) (HPC)) 201 % of control; (dose: 17.0 mg/kg/injection, schedule: Q04DX003 (ip), vehicle: gum acacia) 250 % of control; (dose: 25.0 mg/kg/injection, schedule: Q04DX003 (ip), vehicle: gum acacia) 250 % of control.
Take `C1CC[N-]CC1.C1CC[N-]CC1.C1CC[N-]CC1.[Cl][Rh]([Cl])[Cl]`: the T/C is 156 % of control under setting [5]; 157 % of control under setting [6]; 161 % of control and 175 % of control under setting [1].
As to `CC(C)CCNc1ccc(NCCC(C)C)cc1`, the T/C was 100 % of control (dose: 2.34 mg/kg/injection, schedule: Q01DX009 (ip), vehicle: alcohol); 100 % of control (dose: 4.68 mg/kg/injection, schedule: Q01DX009 (ip), vehicle: alcohol); 112 % of control (dose: 9.37 mg/kg/injection, schedule: Q01DX009 (ip), vehicle: alcohol); 109 % of control (dose: 13.75 mg/kg/injection, schedule: Q04DX003 (ip), vehicle: alcohol); 122 % of control (dose: 18.75 mg/kg/injection, schedule: Q01DX009 (ip), vehicle: alcohol); 109 % of control (dose: 27.5 mg/kg/injection, schedule: Q04DX003 (ip), vehicle: alcohol).
For the compound `CCCCOCN(COCCCC)C(C)(C)C`, the T/C (dose: 100.0 mg/kg/injection, schedule: Q01DX001 (ip), vehicle: saline) is 120 % of control and the T/C (dose: 200.0 mg/kg/injection, schedule: Q01DX001 (ip), vehicle: saline) is 110 % of control.
With `CC(C)(C)C(=O)C(Oc1ccc(Cl)cc1)n1cncn1` (configuration not stated), the T/C was 100 % of control under setting [7], 100 % of control under setting [8] and 100 % of control under setting [9].
Take `CC[C@@H]1C[C@H]2CC3c4c(c5cc(OC)ccc5n4C)CCN(C2)C31`: the T/C by setting is: under setting [7], 102 % of control; under setting [8], 105 % of control; under setting [9], 102 % of control.
As for `Nc1cc(Cl)c2[nH]cnc2n1`, the T/C by setting is: under setting [10], 114 % of control; under setting [5], 100 % of control; under setting [6], 110 % of control; (dose: 50.0 mg/kg/injection, schedule: Q01DX005 (ip), vehicle: distilled water + Tween-80) 105 % of control; under setting [1], 115 % of control; (dose: 100.0 mg/kg/injection, schedule: Q01DX009 (ip), vehicle: saline) 100 % of control.
As to `O=[N+]([O-])c1ccc(N(CCO)CCO)c2nonc12`, the T/C by setting is: (dose: 15.0 mg/kg/injection, schedule: Q01DX009 (ip), vehicle: saline with Tween-80) 101 % of control; (dose: 25.0 mg/kg/injection, schedule: Q04DX003 (ip), vehicle: saline with Tween-80) 114 % of control; (dose: 30.0 mg/kg/injection, schedule: Q01DX009 (ip), vehicle: saline with Tween-80) 100 % of control; under setting [11], 97 % of control; (dose: 60.0 mg/kg/injection, schedule: Q01DX009 (ip), vehicle: saline with Tween-80) 101 % of control; under setting [12], 98 % of control.
As for `Nc1ccccc1/C=C(\C(=O)O)c1cccc(Cl)c1`, the T/C is 95 % of control under setting [13]; 104 % of control under setting [14]; 100 % of control (dose: 400.0 mg/kg/injection, schedule: Q04DX003 (ip), vehicle: Klucel (hydroxypropylcellulose) (HPC)).
With `O=C1CC(c2ccc(O)cc2)CC(=O)C1C(C1CC=CCC1)N(CCCl)CCCl` (configuration not stated), the T/C was 109 % of control and 87 % of control under setting [13]; 120 % of control under setting [14].
As to `CC(=O)OC(C)(C)/C=C/C(=O)[C@](C)(O)[C@H]1[C@H](O)C[C@@]2(C)[C@@H]3CC=C4[C@@H](C[C@H](O)[C@H](O)C4(C)C)[C@]3(C)C(=O)C[C@]12C`, the T/C is, setting by setting: (dose: 80.0 mg/kg/injection, schedule: Q01DX010 (ip), vehicle: saline) 109 % of control; (dose: 120.0 mg/kg/injection, schedule: Q01DX010 (ip), vehicle: saline) 122 % of control; (dose: 180.0 mg/kg/injection, schedule: Q01DX010 (ip), vehicle: saline) 118 % of control.
With `CCNNC(=O)[C@@H]1[C@H](c2cc(OC)c(OC)c(OC)c2)c2cc3c(cc2[C@H](O)[C@H]1CO)OCO3`, the T/C is 109 % of control under setting [5]; 100 % of control under setting [6]; 116 % of control under setting [7]; 122 % of control under setting [1]; 90 % of control under setting [8]; 108 % of control under setting [12]. In addition, the T/C under setting [9] was 90 % of control and the T/C under setting [15] was 104 % of control.
Turning to `CN(C)c1ccc(C(=O)c2ccccc2)cc1`, the T/C under setting [2] was 104 % of control, the T/C under setting [3] is 90 % of control and the T/C under setting [4] is 95 % of control.
With `c1ccc(CSc2ncnc3nc[nH]c23)nc1`, the T/C is, setting by setting: (dose: 50.0 mg/kg/injection, schedule: Q01DX009 (ip), vehicle: saline sonified) 100 % of control; under setting [11], 105 % of control; (dose: 100.0 mg/kg/injection, schedule: Q01DX009 (ip), vehicle: saline sonified) 111 % of control; under setting [12], 100 % of control; under setting [15], 100 % of control.
Take `CC(=O)c1ccc2c(c1)N(CCCN1CCN(CCO)CC1)c1ccccc1S2`: the T/C is 107 % of control (dose: 3.12 mg/kg/injection, schedule: Q01DX009 (ip), vehicle: saline); 96 % of control under setting [10]; 94 % of control under setting [5].
